Legend:
[1] = target: T1, EGFR-TK (tyrosine kinase domain of EGFR) (Homo sapiens, UniProt P00533); assay: SPR (OpenSPR), immobilised EGFR-TK, […] Langmuir kinetic fit; format: binding
T1 construct: cloned into pCold I, expressed in E. coli Rosetta (DE3); DEAE, Resource Q and Superdex 200 purification; immobilised by amine coupling for SPR

[2] = target: T1, EGFR-TK (tyrosine kinase domain of EGFR); assay: ADP-Glo kinase assay, poly(Glu:Tyr) substrate; format: biochemical; details: read-out: EGFR-TK inhibition IC50

T1 sequence (P00533 696-1022 limits assumed): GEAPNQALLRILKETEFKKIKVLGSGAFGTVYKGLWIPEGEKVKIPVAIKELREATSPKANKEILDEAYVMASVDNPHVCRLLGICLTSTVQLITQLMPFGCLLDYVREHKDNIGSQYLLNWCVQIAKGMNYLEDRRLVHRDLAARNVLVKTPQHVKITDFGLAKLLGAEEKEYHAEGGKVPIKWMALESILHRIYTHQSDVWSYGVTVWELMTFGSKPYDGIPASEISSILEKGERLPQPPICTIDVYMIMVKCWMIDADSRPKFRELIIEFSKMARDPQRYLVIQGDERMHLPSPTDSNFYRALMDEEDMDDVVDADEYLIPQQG

Row | Compound | Kd [1] | IC50 [2]
1 | CCCCCc1cc(O)c(C/C=C(\C)CCC=C(C)C)c(O)c1 [CBG] | 5.61 µM | 29.9 ± 2.1 nM
2 | CCCCCc1cc(O)c2c(c1)OC(C)(C)c1ccc(C)cc1-2 [CBN] | 32.1 µM | 78.8 ± 2.2 nM
3 | C=C(C)[C@@H]1CCC(C)=C[C@H]1c1c(O)cc(CCCCC)cc1O [CBD] | 8.35 µM | 32.6 ± 3.16 nM

— paper PMC9780064, “Structural analysis of cannabinoids against EGFR-TK leads a novel target against EGFR-driven cell lines” (Current Research in Pharmacology and Drug Discovery, 2022)
